Test results published in publication PMC12323867 (RSC Medicinal Chemistry, 2025).
Like-named read-outs stand apart in the source and are kept apart here.

What was measured:
[1] = biological target: T1, LSD1-HDAC1-CoREST complex (Homo sapiens, UniProt O60341); test: LSD1 HRP-coupled demethylase assay, SP2509/SP2577 analogues; type: biochemical; conditions: LSD1 enzymatic activity, complex 50 nM, HRP assay; read-out: LSD1-HDAC1-CoREST IC50
T1 construct: full length native LSD1 (UniProt ID: O60341); made in house; host or cells: HEK 293F cells (co-transfection, pcDNA3 vectors)
Description: The analogues synthesised were then tested for their ability to inhibit LSD1 using purified LSD1-HDAC1-CoREST complex (Fig. 2B). We used an established fluorescent read out horseradish peroxidase (HRP) assay to monitor LSD1 enzymatic activity in the CoREST complex[8] (see ESI ^† for full details).
2. Supplementary Information: Biology
2.1. LSD-HDAC1-CoREST expression and purification
Lysis Buffer (Buffer A) Wash Buffer (Buffer B)
• 50 mM Tris/Cl pH 7.5 • 50 mM Tris/Cl pH 7.5
• 50 mM Potassium Acetate • 50 mM Potassium Acetate […]
Cleavage Buffer (Buffer C) Gel Filtration Buffer (Buffer D)
• 50 mM Tris/Cl pH 7.5 Filtered at vacuum.
• 50 mM Potassium Acetate • 50 mM Tris/Cl pH 7.5
• 5 % v/v Glycerol • 50 mM Potassium Acetate
• 0.5 mM tris(2- • 0.5 mM TCEP carboxyethyl)phosphine (TCEP)
The CoREST ternary complex was comprised of full length native LSD1 (UniProt ID: O60341), full length HDAC1 (UniProt ID: Q13547) and N-terminally truncated RCOR1 (86-485aa) (UniProt ID:
Q9UKL0). Protein constructs were cloned into pcDNA3 vector. The RCOR1 constructs contained an N-terminal (His)10(Flag)3 tag followed by a Tev protease cleavage site. The constructs for ternary complex were co-transfected into suspension-grow HEK 293F cells (Thermofisher Scientific) with polyethylenimine (PEI) (Sigma) and harvested after 48 hours. This section of the procedure was carried out as described previously in literature.11,12
Cell pellets from 1.2 L culture were defrosted, and buffer A (30 mL) was added. The solution was sonicated (Soniprep 150) in an beaker of ice using a 9 mm probe at 10 ampules; operated with 10 […]
2.2. SP2509/SP2577 analogues LSD1 HRP-coupled demethylase assay protocol The commercial reagents for the assay were HRP and Amplex® Ultrared, which are available to purchase from ThermoFisher (31490) and Invitrogen (10737474), respectively. HRP was made up to 8 mg/mL stock solution in 1xPBS buffer, divided into 10 µL aliquots, snap-frozen in liquid nitrogen and stored at -80 °C. Amplex® Ultrared was made up to 10 mM solution in DMSO, divided into 20 µL aliquots and wrapped in foil, away from light and stored at -20 °C. For each assay experiment, CoREST complex was diluted to 500 nM in assay buffer (20 mM HEPES pH 7.5 and 50 mM NaCl).
HRP was defrosted by diluting each aliquot in 90 µL 1xPBS solution, making a 0.8 mg/mL solution.
Amplex® Ultrared was made up to 200 µM in assay buffer. HRP and Amplex® Ultrared were pre-mixed before addition to the plate. H3K4Me2 substrate (4 mM in deionised water) was diluted to 300 µM in assay buffer. All stocks were stored on ice during assay preparation.
The assay was carried out using a ‘black well’ 96 well plate (Corning no. 3915) in a reaction volume of 100 μL. The final concentrations in the assay were as follows: 50 nM CoREST complex, 10 μM Amplex® UltraRed, 0.04 mg/mL HRP and 15 μM H3K4Me2 peptide substrate. The final DMSO concentration in each well was 1.1 %. Three wells of each experiments were designated ‘background controls’ and contained 85 μL assay buffer, premixed Amplex® UltraRed and HRP (10 µL) and H3K4Me peptide substrate (300 μM, 5 µL).
A stock solution of inhibitor (1 -5 mM in DMSO) was subjected to an inhibitor dilution series, in Eppendorf tubes, in 100 % DMSO. Each new inhibitor stock (4 μL) was diluted in assay buffer (1 in 75) within a new Eppendorf set with assay buffer (20 mM HEPES pH 7.5 and 50 m M NaCl), ensuring the percentage of DMSO was consistent throughout the series. To each well of interest, Inhibitor in assay buffer (75 μL) was added, and CoREST complex (500 nM, 10 µL) was added thereafter. The plate was placed on a rocker and pre -incubated for 30 mins. To each well, premixed Amplex® UltraRed and HRP (10 µL) was added before H3K4Me 2 peptide substrate in assay buffer solution (300 μM, 5 µL) was added to the wall of the plate. The plate was covered in foil and spun down for one minute before being placed in the plate reader. The final percentage concentration of DMSO in […]

LSD1 [2] = conditions: cited from earlier work
LSD1 [3] = tested on: LSD1; parameters: method as in PMID 38742921; conditions: cited from earlier work
H3K4me2 levels in cells = tested on: H3K4me2 levels in cells; parameters: method as in PMID 38742921; conditions: cited from earlier work

## C/C(=N\NC(=O)c1cccc(S(=O)(=O)N2CCN(C)CC2)c1)c1cc(Cl)ccc1O [SP2577]
[1]
  IC50: 306 nM
LSD1 [2]; read-out: LSD1 IC50
  IC50: 1330 nM
LSD1 [2]; read-out: LSD1 mean IC50
  IC50: 127 nM
LSD1 [3]
  ability to increase H3K4me2 on peptides and nucleosomes: no effect
H3K4me2 levels in cells
  H3K4me2 levels in cells: failed to increase H3K4me2 levels
